Measurements: ChEMBL document CHEMBL1124890 (J Med Chem, 1990)
Numbered stars: 1 amine (or outer) side, 2 acyl side, 3 side chain; on linkers, the order of the positions; unused ones are H or OH. Square brackets hold non-standard residues; d marks the D form. Peptide text beside a SMILES is read from it. X6 = CN(C)C[C@H]1C=NN([*:1])[C@H](C(=O)[*:2])C1; X5 = O=C1CC[C@@H](C(=O)[*:2])N([*:1])N1; dPiz(1,6-dehydro) = O=C(O)[C@H]1CCC=NN1; X2 = CN1CCC[C@@H](C(=O)[*:2])N1[*:1]; X1 = CN1CCC[C@H](C(=O)[*:2])N1[*:1]; X7 = O=C([C@@H]1C=CC=NN1[*:1])[*:2]; X4 = O=C([C@@H]1CCCNN1[*:1])[*:2]; X3 = O=C([C@H]1CCCNN1[*:1])[*:2]; dNMeF = CN[C@H](Cc1ccccc1)C(=O)O

Legend:
Oxytocin receptor = biological target: T1, Oxytocin receptor (Rattus norvegicus, UniProt P70536); test: Binding affinity against oxytocin receptor in rat uterus
T1 sequence (P70536 whole entry): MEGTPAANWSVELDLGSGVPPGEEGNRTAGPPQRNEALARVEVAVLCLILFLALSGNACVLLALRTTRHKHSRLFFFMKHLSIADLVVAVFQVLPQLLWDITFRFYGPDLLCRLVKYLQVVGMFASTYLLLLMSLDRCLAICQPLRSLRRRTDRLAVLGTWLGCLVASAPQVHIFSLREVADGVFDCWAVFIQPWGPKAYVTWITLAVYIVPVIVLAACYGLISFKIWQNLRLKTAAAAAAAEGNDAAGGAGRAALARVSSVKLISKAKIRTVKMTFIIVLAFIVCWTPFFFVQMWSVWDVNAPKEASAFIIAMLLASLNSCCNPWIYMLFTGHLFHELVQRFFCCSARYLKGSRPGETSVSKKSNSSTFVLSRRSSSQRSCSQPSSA

Vasopressin V2 receptor = Vasopressin V2 receptor (Rattus norvegicus, UniProt Q00788); test: Binding affinity against Vasopressin receptor in rat kidney medulla
Vasopressin V2 receptor, sequence (Q00788 whole entry): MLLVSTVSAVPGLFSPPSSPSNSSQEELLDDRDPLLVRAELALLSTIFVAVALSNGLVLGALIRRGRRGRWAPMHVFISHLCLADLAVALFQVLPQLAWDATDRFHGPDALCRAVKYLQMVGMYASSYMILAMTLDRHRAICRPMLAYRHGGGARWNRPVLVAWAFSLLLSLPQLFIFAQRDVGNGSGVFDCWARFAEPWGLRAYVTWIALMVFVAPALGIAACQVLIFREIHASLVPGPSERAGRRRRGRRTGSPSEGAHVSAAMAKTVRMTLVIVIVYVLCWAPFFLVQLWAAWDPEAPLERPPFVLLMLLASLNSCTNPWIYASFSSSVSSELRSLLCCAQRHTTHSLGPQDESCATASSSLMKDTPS

Ki (Oxytocin receptor) | Ki (Vasopressin V2 receptor) | Structure (SMILES)
89 nM | 7800 nM | CC[C@H](C)[C@@H]1NC(=O)[C@@H](Cc2ccccc2)NC(=O)[C@@H]2CCCN2C(=O)[C@@H](Cc2ccccc2)N(C)C(=O)[C@@H]2CCC(=O)NN2C(=O)[C@H]2CCCNN2C1=O (cyclo(I[X3][X5][dNMeF]P[dF]))
30 nM | 1500 nM | CC[C@H](C)[C@@H]1NC(=O)[C@@H](Cc2ccccc2)NC(=O)[C@@H]2CCCN2C(=O)[C@@H](Cc2ccccc2)N(C)C(=O)[C@@H]2CCCNN2C(=O)[C@H]2CCCNN2C1=O (cyclo([X3][X4][dNMeF]P[dF]I))
150 nM | 3400 nM | CC[C@H](C)[C@H]1C(=O)N2NCCC[C@@H]2C(=O)N2NCCC[C@H]2C(=O)N(C)[C@H](Cc2ccccc2)C(=O)N2CCC[C@H]2C(=O)N[C@H](Cc2ccccc2)C(=O)N1O
8.1 nM | 580 nM | CC[C@H](C)[C@@H]1NC(=O)[C@@H](Cc2ccccc2)NC(=O)[C@@H]2CCCN2C(=O)[C@@H](Cc2ccccc2)N(C)C(=O)[C@@H]2C=CC=NN2C(=O)[C@H]2CCC=NN2C1=O (cyclo(I[dPiz(1,6-dehydro)][X7][dNMeF]P[dF]))
1.1 nM | 70 nM | CC[C@@H](C)[C@@H]1/N=C(\S)[C@@H](Cc2ccccc2)NC(=O)[C@@H]2CCCN2C(=O)[C@@H](Cc2ccccc2)N(C)C(=O)[C@@H]2CCC=NN2C(=O)[C@H]2CCC=NN2C1=O
2500 nM | 3100 nM | CC[C@H](C)[C@@H]1NC(=O)[C@@H](Cc2ccccc2)NC(=O)[C@@H]2CCCN2C(=O)[C@@H](Cc2ccccc2)N(C)C(=O)[C@@H]2CCCN(C)N2C(=O)[C@H]2CCCN(C)N2C1=O (cyclo(I[X1][X2][dNMeF]P[dF]))
> 30000 nM | 30000 nM | CC[C@H](C)[C@@H]1NC[C@@H](Cc2ccccc2)NC(=O)[C@@H]2CCCN2C(=O)[C@@H](Cc2ccccc2)N(C)C(=O)[C@@H]2CCC=NN2C(=O)[C@H]2CCC=NN2C1=O
3.4 nM | 1100 nM | CC[C@H](C)[C@@H]1NC(=O)[C@@H](Cc2ccccc2)NC(=O)[C@@H]2CCCN2C(=O)[C@@H](Cc2ccccc2)N(C)C(=O)[C@@H]2C[C@@H](CN(C)C)C=NN2C(=O)[C@H]2CCC=NN2C1=O (cyclo(I[dPiz(1,6-dehydro)][X6][dNMeF]P[dF]))
9.6 nM | 6800 nM | CC[C@H](C)[C@@H]1NC(=O)[C@@H](Cc2ccccc2)NC(=O)[C@@H]2CCCN2C(=O)[C@@H](Cc2ccccc2)N(C)C(=O)[C@@H]2CCC(=O)NN2C(=O)[C@H]2CCC=NN2C1=O (cyclo(I[dPiz(1,6-dehydro)][X5][dNMeF]P[dF]))
